This is an account of results in ChEMBL document CHEMBL1134759, “Synthesis of a novel C-10 spiro-epoxide of paclitaxel” (Bioorg Med Chem Lett, 2001).

A value given as a limit tells only on which side of the number the result lay.

Assay [1] deals with Tubulin alpha chain (Sus scrofa) (UniProt P02550). The experiment in a line: Potency to that of potency of paclitaxel in Tubulin polymerization assay. Format: functional.
The subject of assay [2] is HCT-116. The experiment in a line: In vitro inhibitory activity against colon carcinoma HCT 116 cell line was determined. Format: functional, cell-based. Particulars: Homo sapiens.
The next assay concerns A2780. The experiment in a line: In vitro inhibitory activity against Ovarian A2780 cell line was determined. The settings on record: Homo sapiens. Format: functional, cell-based.
Assay [3] has as its system HCT-116. The experiment in a line: In vitro inhibitory activity against Paclitaxel resistant colon carcinoma HCT VM46 cell line was determined. Format: functional, cell-based. The settings on record: Homo sapiens.

Chain of Tubulin alpha chain (Sus scrofa) (P02550 whole entry, looked up): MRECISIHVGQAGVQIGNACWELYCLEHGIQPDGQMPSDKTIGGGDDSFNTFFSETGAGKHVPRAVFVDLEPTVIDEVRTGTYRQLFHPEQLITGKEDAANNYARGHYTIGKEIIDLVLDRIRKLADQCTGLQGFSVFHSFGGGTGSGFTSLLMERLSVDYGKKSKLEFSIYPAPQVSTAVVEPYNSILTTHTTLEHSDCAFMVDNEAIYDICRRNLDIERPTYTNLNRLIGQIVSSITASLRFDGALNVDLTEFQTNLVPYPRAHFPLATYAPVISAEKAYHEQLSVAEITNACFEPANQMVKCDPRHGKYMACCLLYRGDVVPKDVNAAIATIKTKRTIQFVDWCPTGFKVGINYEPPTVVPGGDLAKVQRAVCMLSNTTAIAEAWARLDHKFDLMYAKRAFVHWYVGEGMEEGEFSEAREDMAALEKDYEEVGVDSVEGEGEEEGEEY

One may read the IC50 as the midpoint of a concentration-inhibition curve. Lower therefore signals higher potency. Consider `CC(=O)O[C@H]1C(=O)[C@@]2(C)C([C@H](OC(=O)c3ccccc3)C3(O)C[C@H](OC(=O)[C@H](O)[C@@H](NC(=O)c4ccccc4)c4ccccc4)C(C)=C1C3(C)C)[C@]1(OC(C)=O)COC1C[C@@H]2O` (some centres not stated), for which, in assay [1], the Ratio came to 1. In addition, the IC50 with HCT-116 [2] is 2.9 nM; in the assay on A2780, 3.5 nM; in the assay on HCT-116 [3] it was more than 118 nM.

As for `CC(=O)O[C@@]12COC1C[C@H](O)[C@@]1(C)C(=O)[C@@]3(CO3)C3=C(C)[C@@H](OC(=O)[C@H](O)[C@@H](NC(=O)c4ccccc4)c4ccccc4)CC(O)([C@@H](OC(=O)c4ccccc4)C21)C3(C)C` (some centres not stated), in assay [1], the Ratio turned out to be 0.5. Moreover, the half-maximal inhibitory concentration (IC50) in the assay with HCT-116 [2] was 2 nM; in the assay on A2780, 2.5 nM; in the assay on HCT-116 [3], more than 121 nM.

As for `COCO[C@H]1CC2OC[C@@]2(OC(C)=O)C2[C@H](OC(=O)c3ccccc3)C3(O)C[C@H](OC(=O)[C@H](O)[C@@H](NC(=O)c4ccccc4)c4ccccc4)C(C)=C(C3(C)C)[C@@]3(CO3)C(=O)[C@@]21C` (some centres not stated), the Ratio in assay [1] is 0.7. In addition, the IC50 came to 1.5 nM in the assay with HCT-116 [2], 1.8 nM in the assay on A2780 and 14 nM with HCT-116 [3].
